Experimental data reported in ChEMBL document CHEMBL3509421, “FDA drug approval package for diclofenac acid (NDA 22-202 CP, Ref ID: 3374276)”.

What was measured:
[1] = (§1) Mean Cmax of diclofenac following single oral dosing of 50 mg diclofenac potassium softgel capsule in healthy human; assay type: ADME, organism-based; parameters: dietary status Fasting, dose 50 mg, dosed compound id 2.46815e+06, dosed compound name Diclofenac potassium, gender Mixed, regimen Single, route oral, study doses 25/50 mg; conditions: both, plasma
[2] = Mean apparent terminal elimination rate constant value of diclofenac following single oral dosing of 50 mg Cataflam tablet in healthy human; assay type: ADME, organism-based, Plasma; parameters: dietary status Fasting, dose 50 mg, dosed compound id 2.46815e+06, dosed compound name Diclofenac potassium, gender Mixed, regimen Single, route oral; conditions: in vivo
[3] = Maximum tmax of diclofenac following single oral dosing of 35 mg Zorvolex capsule in healthy human; assay type: ADME, organism-based, Plasma; parameters: dietary status Fasting, dose 35 mg, dosed compound id 2.46815e+06, dosed compound name Diclofenac, gender Mixed, regimen Single, route oral; conditions: in vivo
[4] = Maximum tmax of diclofenac following single oral dosing of 50 mg Cataflam tablet in healthy human; assay type: ADME, organism-based, Plasma; parameters: dietary status Fed, dose 50 mg, dosed compound id 2.46815e+06, dosed compound name Diclofenac potassium, gender Mixed, regimen Single, route oral; conditions: in vivo
[5] = (§2) Mean maximum Tmax value of diclofenac potassium following oral dosing of Cataflam 50 mf tablet in healthy human; assay type: ADME, organism-based; parameters: dietary status Fed, dose 50 mg, dosed compound id 2.46815e+06, dosed compound name Diclofenac potassium, gender Mixed, regimen Single, route oral, study doses 50 mg; conditions: both, plasma, 50 mg, read-out: Maximum Tmax
[6] = Mean AUC (0-infinity) value of diclofenac following single oral dosing of 50 mg Cataflam tablet in healthy human; assay type: ADME, organism-based; parameters: time infinity, dietary status Fed, dose 50 mg, dosed compound id 2.46815e+06, dosed compound name Diclofenac potassium, gender Mixed, regimen Single, route oral; conditions: both, plasma, read-out: AUC (0-infinity)
[7] = Mean minimum Tmax value of diclofenac potassium following oral dosing of Cataflam 50 mf tablet in healthy human; assay type: ADME, organism-based; parameters: dietary status Fed, dose 50 mg, dosed compound id 2.46815e+06, dosed compound name Diclofenac potassium, gender Mixed, regimen Single, route oral, study doses 50 mg; conditions: both, plasma, 50 mg, read-out: Minimum Tmax
[8] = Mean AUC(0-infinity) of diclofenac following single oral dosing of 50 mg diclofenac potassium soft gelatin capsule in healthy human; assay type: ADME, organism-based; parameters: time infinity, dietary status Fasting, dose 50 mg, dosed compound id 2.46815e+06, dosed compound name Diclofenac potassium, gender Mixed, regimen Single, route oral, study doses 25/50 mg; conditions: both, plasma, read-out: AUC (0-infinity)
[9] = Mean apparent terminal elimination rate constant value of diclofenac following single oral dosing of 35 mg Zorvolex capsule in healthy human; assay type: ADME, organism-based, Plasma; parameters: dietary status Fed, dose 35 mg, dosed compound id 2.46815e+06, dosed compound name Diclofenac, gender Mixed, regimen Single, route oral; conditions: in vivo
[10] = Mean AUC(0-infinity) of diclofenac potassium following oral dosing of PRO-513 50 mg sachet in healthy human; assay type: ADME, organism-based; parameters: time infinity, dietary status Fed, dose 50 mg, dosed compound id 2.46815e+06, dosed compound name Diclofenac potassium, gender Mixed, regimen Single, route oral, study doses 50 mg; conditions: both, plasma, read-out: AUC(0-infinity)
[11] = Geometric mean for AUC (0-t) of diclofenac following single oral dosing of 50 mg Cataflam tablet in healthy human; assay type: ADME, organism-based; parameters: dietary status Fed, dose 50 mg, dosed compound id 2.46815e+06, dosed compound name Diclofenac potassium, gender Mixed, regimen Single, route oral; conditions: both, plasma
[12] = Geometric mean for Cmax of diclofenac following single oral dosing of 35 mg Zorvolex capsule in healthy human; assay type: ADME, organism-based; parameters: dietary status Fed, dose 35 mg, dosed compound id 2.46815e+06, dosed compound name Diclofenac, gender Mixed, regimen Single, route oral; conditions: both, plasma
[13] = Mean median Tmax value of diclofenac potassium following oral dosing of PRO-513 50 mg sachet in healthy human; assay type: ADME, organism-based; parameters: dietary status Fasting, dose 50 mg, dosed compound id 2.46815e+06, dosed compound name Diclofenac potassium, gender Mixed, regimen Single, route oral, study doses 50 mg; conditions: both, plasma, read-out: Median Tmax
[14] = Mean AUC(0-t) of diclofenac following single oral dosing of 50 mg Cataflam in healthy human; assay type: ADME, organism-based; parameters: dietary status Fasting, dose 50 mg, dosed compound id 2.46815e+06, dosed compound name Diclofenac potassium, gender Mixed, regimen Single, route oral, study doses 50 mg; conditions: both, plasma
clinical [15] = conditions: both, human, plasma, po, 50 mg
[16] = Mean AUC(0-infinity) of diclofenac potassium following oral dosing of Cataflam 50 mf tablet in healthy human; assay type: ADME, organism-based; parameters: dietary status Fed, dose 50 mg, dosed compound id 2.46815e+06, dosed compound name Diclofenac potassium, gender Mixed, regimen Single, route oral, study doses 50 mg, time infinity; conditions: both, plasma, 50 mg, read-out: AUC(0-infinity)
[17] = Mean Cmax of diclofenac potassium following oral dosing of PRO-513 50 mg sachet in healthy human; assay type: ADME, organism-based; parameters: dietary status Fed, dose 50 mg, dosed compound id 2.46815e+06, dosed compound name Diclofenac potassium, gender Mixed, regimen Single, route oral, study doses 50 mg; conditions: both, plasma
[18] = as §2; assay type: ADME, organism-based; parameters: dietary status Fasting, dose 50 mg, dosed compound id 2.46815e+06, dosed compound name Diclofenac potassium, gender Mixed, regimen Single, route oral, study doses 50 mg; conditions: both, plasma, 50 mg, read-out: Maximum Tmax
[19] = Geometric mean for Cmax of diclofenac following single oral dosing of 50 mg Cataflam tablet in healthy human; assay type: ADME, organism-based; parameters: dietary status Fed, dose 50 mg, dosed compound id 2.46815e+06, dosed compound name Diclofenac potassium, gender Mixed, regimen Single, route oral; conditions: both, plasma
clinical [20] = conditions: both, human, plasma, po, 50 mg; remark: listed apart in the source
[21] = Median tmax of diclofenac following single oral dosing of 50 mg Cataflam tablet in healthy human; assay type: ADME, organism-based; parameters: dietary status Fed, dose 50 mg, dosed compound id 2.46815e+06, dosed compound name Diclofenac potassium, gender Mixed, regimen Single, route oral; conditions: both, plasma, read-out: Median Tmax
[22] = Mean AUC(0-t) of diclofenac following single oral dosing of 25 mg diclofenac potassium soft gelatin capsule in healthy human; assay type: ADME, organism-based; parameters: dietary status Fasting, dose 25 mg, dosed compound id 2.46815e+06, dosed compound name Diclofenac potassium, gender Mixed, regimen Single, route oral, study doses 25/50 mg; conditions: both, plasma
clinical [23] = conditions: both, human, plasma, po, 50 mg; remark: listed apart in the source
clinical [24] = conditions: both, human, plasma, po, 18 mg
[25] = as §1; assay type: ADME, organism-based; parameters: dietary status Fed, dose 50 mg, dosed compound id 2.46815e+06, dosed compound name Diclofenac potassium, gender Mixed, regimen Single, route oral, study doses 25/50 mg; conditions: both, plasma
[26] = Geometric mean for apparent terminal elimination rate constant of diclofenac following single oral dosing of 18 mg Zorvolex capsule in healthy human; assay type: ADME, organism-based, Plasma; parameters: dietary status Fasting, dose 18 mg, dosed compound id 2.46815e+06, dosed compound name Diclofenac, gender Mixed, regimen Single, route oral; conditions: in vivo
[27] = Mean terminal elimination half-life of diclofenac potassium following oral dosing of Cataflam 50 mf tablet in healthy human; conditions: both, plasma, 50 mg
[28] = Mean median Tmax value of diclofenac potassium following oral dosing of Cataflam 50 mf tablet in healthy human; assay type: ADME, organism-based; parameters: dietary status Fed, dose 50 mg, dosed compound id 2.46815e+06, dosed compound name Diclofenac potassium, gender Mixed, regimen Single, route oral, study doses 50 mg; conditions: both, plasma, 50 mg, read-out: Median Tmax
[29] = Mean AUC (0-infinity) of diclofenac following single oral dosing of 50 mg diclofenac potassium softgel capsule in healthy human; assay type: ADME, organism-based; parameters: time infinity, dietary status Fasting, dose 50 mg, dosed compound id 2.46815e+06, dosed compound name Diclofenac potassium, gender Mixed, regimen Single, route oral, study doses 25/50 mg; conditions: both, plasma, read-out: AUC (0-infinity)
clinical [30] = conditions: both, human, plasma, po, 50 mg; remark: listed apart in the source
Description: Mean terminal elimination half-life of diclofenac following single oral dosing of 50 mg diclofenac potassium softgel capsule in healthy human

[31] = Mean AUC(0-t) of diclofenac following single oral dosing of 50 mg diclofenac potassium soft gelatin capsule in healthy human; assay type: ADME, organism-based; parameters: dietary status Fasting, dose 50 mg, dosed compound id 2.46815e+06, dosed compound name Diclofenac potassium, gender Mixed, regimen Single, route oral, study doses 25/50 mg; conditions: both, plasma

Compound: O=C(O)Cc1ccccc1Nc1c(Cl)cccc1Cl [DICLOFENAC]
- Cmax [1]: 2360 ng/mL
- lambda-z [2]: 0.333 h⁻¹
- Maximum Tmax [3]: 4 h
- Maximum Tmax [4]: 4.53 h
- Tmax [5]: 8 h
- AUC(0-inf) [6]: 1200 ng·h/mL
- Tmax [7]: 0.33 h
- AUC(0-inf) [8]: 1230 ng·h/mL
- lambda-z [9]: 0.371 h⁻¹
- AUC(0-inf) [10]: 1080 ng·h/mL
- AUC(0-t) [11]: 1150 ng·h/mL
- Cmax [12]: 321 ng/mL
- Tmax [13]: 0.25 h
- AUC(0-t) [14]: 1130 ng·h/mL
- half-life (clinical [15]): 2.27 h
- AUC(0-inf) [16]: 1070 ng·h/mL
- Cmax [17]: 506 ng/mL
- Tmax [18]: 4 h
- Cmax [19]: 621 ng/mL
- half-life (clinical [20]): 1.84 h
- Tmax [21]: 2.33 h
- AUC(0-t) [22]: 579 ng·h/mL
- half-life (clinical [23]): 2.15 h
- half-life (clinical [24]): 1.87 h
- Cmax [25]: 1150 ng/mL
- lambda-z [26]: 0.384 h⁻¹
- half-life [27]: 1.56 h
- Tmax [28]: 1.25 h
- AUC(0-inf) [29]: 1550 ng·h/mL
- half-life (clinical [30]): 1.07 h
- AUC(0-t) [31]: 1200 ng·h/mL
